Experimental data as given in patent US20070173496A1, “Novel polymorph E of Olanzapine and preparation of anhydrous non-solvated crystalline polymorphic Form I of 2-methyl-4(4-methyl-1-piperazinyl)-10H-thieno[2,3-b][1,5] benzodiazepine (Olanzapine Form I) from the polymorphic Olanzapine Form E” (priority 2006, published 2007).

Experiments:
[1] = commercially available Form I prepared by prior art methods (U.S. Pat. No. 5,229,382); cited from earlier work
[2] = color stability of Olanzapine Form I on exposure at room temperature / in air; type: physicochemical; settings: Form I from Form E by rapid crystallization in methylene chloride-methanol and step-wise drying, at least 3 months
Description: In another aspect of this invention the new poly-type Olanzapine Form E generated with rapid crystallization in methylene chloride-methanol along with step-wise drying techniques produces non-solvated anhydrous Form I of 2-methyl-4-(4-methyl-1-piperazinyl)-10H-thieno[2,3-b][1,5] benzodiazepine which is stable enough to be used commercially in pharmaceutical formulations.

[3] = solid-state stability of poly-type Form E at room temperature; type: physicochemical; settings: step-wise drying converts it to Form I
Description: The new poly-type E is stable at room temperature but when subjected to step-wise drying techniques results in substantially pure Olanzapine Form I.

SMILES: Cc1cc2c(s1)Nc1ccccc1N=C2N1CCN(C)CC1 [Olanzapine Form I, 2-methyl-4-(4-methyl-1-piperazinyl)-10H-thieno[2,3-b][1,5] benzodiazepine]
- color change over time due to exposure in air [1]: color is found to change over time
- color change during exposure at room temperature [2]: No color change

SMILES: Cc1cc2c(s1)Nc1ccccc1N=C2N1CCN(C)CC1 [poly-type E, 2-methyl-4-(4-methyl-1-piperazinyl)-10H-thieno[2,3-b][1,5] benzodiazepine]
- stability at room temperature [3]: stable
